Tests used:
Assay in all cases: relative viability (nuclei count vs DMSO), 5 days (fraction); higher = more cells survive
[1] = compound: NC1(c2ccc(-c3nc4ccn5c(=O)[nH]nc5c4cc3-c3ccccc3)cc2)CCC1 [MK-2206] + Cc1nc(NC(=O)N2CCC[C@H]2C(N)=O)sc1-c1ccnc(C(C)(C)C(F)(F)F)c1 [Alpelisib] (partner 2 µM)
How it was run: (§1)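 Lung cancer cell lines were seeded in 1536-well plates and dosed by pin tool the next day, with either a single drug or a fixed anchor-drug dose combined with five library-drug doses (not always all listed) spaced in √10 steps. Five days later, one step fixed the cells and stained their nuclei (final 0.05% Triton X-100, 1% formaldehyde, 1 ug/ml Hoechst), and nuclei were counted on 4× images. Relative viability is the nuclei count in treated wells divided by the count in vehicle wells, and each value is the median of duplicate plates.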

[2] = compound: CS(=O)(=O)N1CCN(Cc2cc3nc(-c4cccc5[nH]ncc45)nc(N4CCOCC4)c3s2)CC1 [Pictilisib] + O=C(CCCCCCC(=O)Nc1ccccc1)NO [Vorinostat] (partner 1 µM)
How it was run: as §1

[3] = compound: NC1(c2ccc(-c3nc4ccn5c(=O)[nH]nc5c4cc3-c3ccccc3)cc2)CCC1 [MK-2206] + CCNC(=O)c1noc(-c2cc(C(C)C)c(O)cc2O)c1-c1ccc(CN2CCOCC2)cc1 [Luminespib] (partner 0.01 µM)
How it was run: as §1

[4] = compound: CS(=O)(=O)N1CCN(Cc2cc3nc(-c4cccc5[nH]ncc45)nc(N4CCOCC4)c3s2)CC1 [Pictilisib] + Cc1cc(Nc2cc(N3CCN(C)CC3)nc(Sc3ccc(NC(=O)C4CC4)cc3)n2)n[nH]1 [Tozasertib] (partner 0.1 µM)
How it was run: as §1

[5] = compound: CS(=O)(=O)N1CCN(Cc2cc3nc(-c4cccc5[nH]ncc45)nc(N4CCOCC4)c3s2)CC1 [Pictilisib] + Cc1nc(Nc2ncc(C(=O)Nc3c(C)cccc3Cl)s2)cc(N2CCN(CCO)CC2)n1 [Dasatinib] (partner 0.075 µM)
How it was run: as §1

Cell Line | relative viability ([1]; first compound 0.01 µM) | relative viability ([1]; first compound 0.03162 µM) | relative viability ([1]; first compound 0.3162 µM) | relative viability ([1]; first compound 1 µM) | relative viability ([2]; first compound 0.02 µM) | relative viability ([2]; first compound 0.06325 µM) | relative viability ([2]; first compound 0.6325 µM) | relative viability ([2]; first compound 2 µM) | relative viability ([3]; first compound 0.01 µM) | relative viability ([3]; first compound 0.03162 µM) | relative viability ([3]; first compound 0.3162 µM) | relative viability ([3]; first compound 1 µM) | relative viability ([4]; first compound 0.02 µM) | relative viability ([4]; first compound 0.06325 µM) | relative viability ([4]; first compound 0.6325 µM) | relative viability ([4]; first compound 2 µM) | relative viability ([5]; first compound 0.02 µM) | relative viability ([5]; first compound 0.06325 µM) | relative viability ([5]; first compound 0.6325 µM) | relative viability ([5]; first compound 2 µM)
NCI-H661 | 0.745 | 1.07 | 0.688 | 0.473 | 0.857 | 0.826 | 0.936 | 0.745 | 0.93 | 0.884 | 0.968 | 0.947 | 0.345 | 0.354 | 0.4 | 0.396 | 0.942 | 0.878 | 0.439 | 0.304
CAL-12T | 1.04 | 1.03 | 1.05 | 0.895 | 0.755 | 0.664 | 0.629 | 0.283 | 0.362 | 0.515 | 0.457 | 0.477 | 0.296 | 0.314 | 0.277 | 0.17 | 0.352 | 0.3 | 0.141 | 0.0923
HARA | 0.789 | 0.745 | 0.611 | 0.582 | 0.712 | 0.35 | 0.299 | 0.239 | 0.798 | 1.06 | 0.77 | 0.839 | 0.127 | 0.107 | 0.0682 | 0.0525 | 0.256 | 0.246 | 0.163 | 0.142
NCI-H596 | 0.518 | 0.623 | 0.401 | 0.473 | 0.545 | 0.618 | 0.371 | 0.709 | 0.984 | 0.919 | 0.889 | 0.737 | 0.822 | 0.901 | 0.591 | 0.356 | 0.569 | 0.537 | 0.325 | 0.207
LU99A | 0.569 | 0.559 | 0.396 | 0.472 | 0.548 | 0.593 | 0.327 | 0.225 | 0.284 | 0.251 | 0.268 | 0.203 | 0.338 | 0.292 | 0.262 | 0.163 | 0.514 | 0.567 | 0.281 | 0.204
LC-2-ad | 0.888 | 0.847 | 0.802 | 0.793 | 0.699 | 0.779 | 0.466 | 0.447 | 1.01 | 1.01 | 1.24 | 1.08 | 0.482 | 0.516 | 0.345 | 0.264 | 0.739 | 0.516 | 0.248 | 0.177
NCI-H1650 | – | – | – | – | 0.566 | 0.666 | 0.819 | 0.358 | 0.185 | 0.182 | 0.215 | 0.183 | 0.467 | 0.401 | 0.348 | 0.18 | 0.406 | 0.277 | 0.174 | 0.16
NCI-H1915 | 1.05 | 1.1 | 1.04 | 1.08 | 0.537 | 0.521 | 0.536 | 0.403 | 0.86 | 0.853 | 0.787 | 0.72 | 0.433 | 0.432 | 0.405 | 0.308 | 0.326 | 0.317 | 0.304 | 0.286
ABC-1 | 0.964 | 0.915 | 0.848 | 0.812 | 0.83 | 1.07 | 0.859 | 0.691 | 0.601 | 0.334 | 0.481 | 0.391 | 0.187 | 0.135 | 0.158 | 0.168 | 0.664 | 0.55 | 0.522 | 0.473
HCC-44 | 0.784 | 0.767 | 0.633 | 0.59 | 1.19 | 1.14 | 1.17 | 0.783 | 1.05 | 1.2 | 1.21 | 1.09 | 0.952 | 0.922 | 0.629 | 0.279 | – | – | – | –
HCC-78 | 0.372 | 0.336 | 0.256 | 0.21 | 0.393 | 0.384 | 0.322 | 0.257 | – | – | – | – | 0.427 | 0.46 | 0.309 | 0.281 | 0.379 | 0.359 | 0.222 | 0.189
LXF-289 | 1.06 | 1.09 | 1.02 | 1 | 0.885 | 0.696 | 0.763 | 0.557 | 0.661 | 0.722 | 0.728 | 0.771 | 0.224 | 0.215 | 0.155 | 0.0896 | 0.189 | 0.212 | 0.104 | 0.0692
201T | 0.97 | 1.05 | 0.958 | 0.958 | 0.859 | 0.966 | 0.869 | 0.622 | 1.01 | 1.05 | 1.09 | 1.03 | 0.99 | 0.963 | 0.82 | 0.556 | 0.552 | 0.506 | 0.464 | 0.276
NCI-H1734 | 0.709 | 0.625 | 0.451 | 0.521 | 0.878 | 0.779 | 0.482 | 0.375 | 0.194 | 0.168 | 0.193 | 0.148 | 0.254 | 0.275 | 0.226 | 0.193 | 0.451 | 0.424 | 0.281 | 0.182
NCI-H1623 | – | – | – | – | – | – | – | – | 0.499 | 0.526 | 0.492 | 0.458 | 0.378 | 0.364 | 0.381 | 0.272 | 0.55 | 0.487 | 0.472 | 0.251
NCI-H2126 | 0.719 | 0.707 | 0.678 | 0.621 | 0.794 | 0.732 | 0.504 | 0.317 | 0.9 | 0.877 | 0.856 | 0.752 | 0.826 | 0.807 | 0.73 | 0.517 | 0.626 | 0.566 | 0.337 | 0.3
